Each structure is given as a SMILES string. Where a name gives a salt, the structure may show the parent alone.

Experiment [1] concerns MOLM-13 cells. As to the kind of experiment: MOLM-13 Uridine Rescue Assay. It counts as cell-based. Conditions: Homo sapiens; MOLM-13 cell proliferation with 100 μM Uridine added, 72 Hours of culture. On the procedure:
The following assay was conducted to measure proliferation of MOLM-13 cells in the presence of each compound studied. This assay was included as an indicator of DHODH inhibition, as growth of MOLM-13 cells is known to depend on synthesis of pyrimidines using the de novo pathway, which can be blocked by inhibition of DHODH. • 1. MOLM-13 cells were cultured in RPMI 1640 medium+10% Fetal Bovine Serum (FBS). Only low passage cells (<20) were used for the compound tests • 2. On day 1, Log-phase growing Molm-13 Cells were counted and diluted to 10^5 cells/mL in RPMI 1640 medium+10% FBS • 3. 100 μL of diluted MOLM-13 cells in 96 well white plates were seeded, for a final density of 10^4 cells/well. • 4. 0.5 μL of pre-diluted 200× compounds or DMSO control was added to each well. The final DMSO concentration was 0.5%. • 5. After 72 Hours of culture at 37° C., 5% CO2, the plates were taken out and cooled to RT, then 50 μL CellTiter-Glo® (Promega) was added, and the composition was mixed at RT for 10 minutes. • 6. The plates were then read by ViewLux (Speed-fast, Gain-High, Bining-1X, 5 seconds).
Several compounds were also tested in a Uridine rescue assay. In the Uridine rescue assay, using the procedure in Example 1 above, an additional plate of MOLM-13 cell cultures was prepared, to which 100 μM of Uridine was added in step 3 of the process.

Experiment [2] deals with MOLM-13 cells. As to the kind of experiment: MOLM-13 Cell Proliferation Assay (indicator of DHODH inhibition). Conditions: Homo sapiens, 72 Hours of culture, CellTiter-Glo, no uridine. The class given is cell-based. An outline of the steps: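 Proliferation readout via CellTiter-Glo luminescence after 72 h compound treatment (37 °C, 5% CO2, 0.5% DMSO) of MOLM-13 cells seeded at 10^4 per well in RPMI 1640/10% FBS, used as a DHODH-inhibition indicator since these cells rely on de novo pyrimidine synthesis.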

As to `Fc1cc2[nH]c3c(c2cc1Cl)CCN(c1nc(C(F)(F)F)cc(C(F)(F)F)n1)C3c1cccc(F)c1F` (stereo not shown) [Compound 157, 2-[4,6-bis(trifluoromethyl)pyrimidin-2-yl]-6-chloro-1-(2,3-difluorophenyl)-7-fluoro-2,3,4,9-tetrahydro-1H-pyrido[3,4-b]indole], the IC50 in experiment [1] amounted to 14900 nM; in experiment [2], 0.6 nM.
In the case of `Cc1ccc(C2c3[nH]c4ccc(Cl)cc4c3CCN2c2nc(C(F)(F)F)cc(C(F)(F)F)n2)c(F)c1F` (stereo not shown) [Compound 340, 2-[4,6-bis(trifluoromethyl)pyrimidin-2-yl]-6-chloro-1-(2,3-difluoro-4-methylphenyl)-2,3,4,9-tetrahydro-1H-pyrido[3,4-b]indole], the IC50 in experiment [1] came out at 15200 nM; in experiment [2], 1 nM.
For `N#Cc1ccc(C2c3[nH]c4ccc(Cl)cc4c3CCN2c2nccc(C(F)(F)F)n2)c(F)c1F` (stereo not shown) [Compound 278, 4-{6-chloro-2-[4-(trifluoromethyl)pyrimidin-2-yl]-2,3,4,9-tetrahydro-1H-pyrido[3,4-b]indol-1-yl}-2,3-difluorobenzonitrile], in that order: 4810 nM and 1.7 nM.
Consider `Cc1ccc(C2c3[nH]c4cc(N)c(Cl)cc4c3CCN2c2nccc(C(F)(F)F)n2)c(F)c1F` (stereo not shown) [Compound 282, 6-chloro-1-(2,3-difluoro-4-methylphenyl)-2-[4-(trifluoromethyl)pyrimidin-2-yl]-2,3,4,9-tetrahydro-1H-pyrido[3,4-b]indol-7-amine], for which the IC50 in experiment [1] was determined as 11500 nM; in experiment [2], 23.2 nM.
`Cc1ccc(C2c3[nH]c4c(N)cc(Cl)cc4c3CCN2c2nccc(C(F)(F)F)n2)c(F)c1F` (stereo not shown) [Compound 248, 6-chloro-1-(2,3-difluoro-4-methylphenyl)-2-[4-(trifluoromethyl)pyrimidin-2-yl]-2,3,4,9-tetrahydro-1H-pyrido[3,4-b]indol-8-amine]: the half-inhibitory concentration (IC50) in experiment [1] was 8550 nM; in experiment [2] it was 0.5 nM.
Take `FC(F)(F)c1ccnc(N2CCc3c([nH]c4ccc(-n5nccn5)cc34)C2c2cnc(N3CCOCC3)nc2)n1` (stereo not shown) [Compound 288, 1-[2-(morpholin-4-yl)pyrimidin-5-yl]-6-(2H-1,2,3-triazol-2-yl)-2-[4-(trifluoromethyl)pyrimidin-2-yl]-2,3,4,9-tetrahydro-1H-pyrido[3,4-b]indole]: the IC50 in experiment [1] was found to be 11400 nM; in experiment [2], 4.6 nM.
Consider `Cc1ccc(C2c3[nH]c4ccc(Cl)cc4c3CCN2c2nccc(C(F)(F)F)n2)cc1` (stereo not shown) [Compound 343, 6-chloro-1-(4-methylphenyl)-2-[4-(trifluoromethyl)pyrimidin-2-yl]-2,3,4,9-tetrahydro-1H-pyrido[3,4-b]indole], for which the concentration for half-maximal inhibition (IC50) in experiment [1] came to 19800 nM; in experiment [2] it was 3.3 nM.
For the compound `Cc1ncnc(N2CCc3c([nH]c4ccc(Cl)cc34)C2c2cnc(N3CCOCC3)nc2)n1` (stereo not shown) [Compound 294, 6-chloro-2-(4-methyl-1,3,5-triazin-2-yl)-1-[2-(morpholin-4-yl)pyrimidin-5-yl]-2,3,4,9-tetrahydro-1H-pyrido[3,4-b]indole], the IC50 in experiment [1] is 12400 nM; in experiment [2] it was 20.8 nM.
Take `Cc1ccc(C2c3[nH]c4ccc(Cl)cc4c3CCN2c2nccc(C#N)n2)c(F)c1F` (stereo not shown) [Compound 363, 2-[6-chloro-1-(2,3-difluoro-4-methylphenyl)-1,3,4,9-tetrahydro-2H-pyrido[3,4-b]indol-2-yl]pyrimidine-4-carbonitrile]: the figures for the IC50 in experiment [1] and in experiment [2] were 10300 nM and 3.2 nM, respectively.
For `Cc1ccc([C@H]2c3[nH]c4ccc(Cl)cc4c3CCN2c2ncnc(C(F)(F)F)n2)cc1` [Compound 418, (1S)-6-chloro-1-(4-methylphenyl)-2-[4-(trifluoromethyl)-1,3,5-triazin-2-yl]-2,3,4,9-tetrahydro-1H-pyrido[3,4-b]indole], in that order: 14900 nM and 2 nM.
As for `Cc1cc(C#N)nc(N2CCc3c([nH]c4ccc(Cl)cc34)C2c2cnc(N3CCOCC3)nc2)n1` (stereo not shown) [Compound 362, 2-{6-chloro-1-[2-(morpholin-4-yl)pyrimidin-5-yl]-1,3,4,9-tetrahydro-2H-pyrido[3,4-b]indol-2-yl}-6-methylpyrimidine-4-carbonitrile], the IC50 in experiment [1] amounted to 6810 nM; in experiment [2] it was 4.3 nM.
Regarding `Cc1ccc(C2c3[nH]c4c(O)cc(Cl)cc4c3CCN2c2nccc(C(F)(F)F)n2)c(F)c1F` (stereo not shown) [Compound 220, 6-chloro-1-(2,3-difluoro-4-methylphenyl)-2-[4-(trifluoromethyl)pyrimidin-2-yl]-2,3,4,9-tetrahydro-1H-pyrido[3,4-b]indol-8-ol], the IC50 came to 6700 nM in experiment [1] and 1.1 nM in experiment [2].
In the same order, the values of `CN1CCN(c2ncc([C@H]3c4[nH]c5ccc(Cl)cc5c4CCN3c3nc(C(F)(F)F)nc(C(F)(F)F)n3)cn2)CC1` [Compound 420, (1S)-2-[4,6-bis(trifluoromethyl)-1,3,5-triazin-2-yl]-6-chloro-1-[2-(4-methylpiperazin-1-yl)pyrimidin-5-yl]-2,3,4,9-tetrahydro-1H-pyrido[3,4-b]indole] are 3120 nM and 0.4 nM.
On to `Cc1cc(C(F)(F)F)nc(N2CCc3c([nH]c4ccc(Cl)cc34)C2c2ccc(C)c(F)c2F)n1` (stereo not shown) [Compound 213, 6-chloro-1-(2,3-difluoro-4-methylphenyl)-2-[4-methyl-6-(trifluoromethyl)pyrimidin-2-yl]-2,3,4,9-tetrahydro-1H-pyrido[3,4-b]indole], for which the half-inhibitory concentration (IC50) in experiment [1] turned out to be 7600 nM; in experiment [2] it was 1 nM.
In the same order, the values of `Cc1cc(C(F)(F)F)nc(N2CCc3c([nH]c4ccc(Cl)cc34)C2c2ccc(N3CCOCC3)nc2)n1` (stereo not shown) [Compound 372, 6-chloro-2-[4-methyl-6-(trifluoromethyl)pyrimidin-2-yl]-1-[6-(morpholin-4-yl)pyridin-3-yl]-2,3,4,9-tetrahydro-1H-pyrido[3,4-b]indole] are 16400 nM and 1.6 nM.
In the same order, the values of `Cc1ccc(C2c3[nH]c4ccc(Cl)c(N)c4c3CCN2c2nccc(C(F)(F)F)n2)c(F)c1F` (stereo not shown) [Compound 273, 6-chloro-1-(2,3-difluoro-4-methylphenyl)-2-[4-(trifluoromethyl)pyrimidin-2-yl]-2,3,4,9-tetrahydro-1H-pyrido[3,4-b]indol-5-amine] are 29700 nM and 7.5 nM.
On to `FC(F)(F)c1cc(C(F)(F)F)nc(N2CCc3c([nH]c4ccc(Cl)cc34)[C@@H]2c2ccc(N3CCOCC3)nc2)n1` [Compound 409, (1S)-2-[4,6-bis(trifluoromethyl)pyrimidin-2-yl]-6-chloro-1-[6-(morpholin-4-yl)pyridin-3-yl]-2,3,4,9-tetrahydro-1H-pyrido[3,4-b]indole], for which the IC50 is 12600 nM in experiment [1] and 0.2 nM in experiment [2].
In the same order, the values of `Cc1ccc([C@H]2c3[nH]c4ccc(Cl)cc4c3CCN2c2nccc(C(F)(F)F)n2)c(F)c1F` [Compound 233, (1S)-6-chloro-1-(2,3-difluoro-4-methylphenyl)-2-[4-(trifluoromethyl)pyrimidin-2-yl]-2,3,4,9-tetrahydro-1H-pyrido[3,4-b]indole] are 12400 nM and 0.4 nM.
As for `Nc1c(Cl)ccc2[nH]c3c(c12)CCN(c1nccc(C(F)(F)F)n1)C3c1cnc(N2CCOCC2)nc1` (stereo not shown) [Compound 328, 6-chloro-1-[2-(morpholin-4-yl)pyrimidin-5-yl]-2-[4-(trifluoromethyl)pyrimidin-2-yl]-2,3,4,9-tetrahydro-1H-pyrido[3,4-b]indol-5-amine], the IC50 worked out at 10500 nM in experiment [1] and 2.9 nM in experiment [2].
As for `Cc1ccc(C2c3[nH]c4ccc([N+](=O)[O-])cc4c3CCN2c2nccc(C(F)(F)F)n2)cc1` (stereo not shown) [Compound 265, 1-(4-methylphenyl)-6-nitro-2-[4-(trifluoromethyl)pyrimidin-2-yl]-2,3,4,9-tetrahydro-1H-pyrido[3,4-b]indole], the IC50 in experiment [1] worked out at 10700 nM; in experiment [2], 3 nM.
As for `FC(F)(F)c1cc(C(F)(F)F)nc(N2CCc3c([nH]c4ccc(Cl)cc34)C2c2ccc(N3CCOCC3)nc2)n1` (stereo not shown) [Compound 357, 2-[4,6-bis(trifluoromethyl)pyrimidin-2-yl]-6-chloro-1-[6-(morpholin-4-yl)pyridin-3-yl]-2,3,4,9-tetrahydro-1H-pyrido[3,4-b]indole formate (1:1)], the results for the IC50 in experiment [1] and in experiment [2] were 9300 nM and 0.6 nM, respectively.
In the same order, the values of `Cc1ccc(C2c3[nH]c4ccc(Cl)cc4c3CCN2c2nccc(C(F)(F)F)n2)c(F)c1` (stereo not shown) [Compound 254, 6-chloro-1-(2-fluoro-4-methylphenyl)-2-[4-(trifluoromethyl)pyrimidin-2-yl]-2,3,4,9-tetrahydro-1H-pyrido[3,4-b]indole] are 6910 nM and 2.2 nM.
Take `Cc1cc(N)c2[nH]c3c(c2c1)CCN(c1nccc(C(F)(F)F)n1)C3c1ccc(C)c(F)c1F` (stereo not shown) [Compound 272, 1-(2,3-difluoro-4-methylphenyl)-6-methyl-2-[4-(trifluoromethyl)pyrimidin-2-yl]-2,3,4,9-tetrahydro-1H-pyrido[3,4-b]indol-8-amine]: the IC50 in experiment [1] came out at 7680 nM; in experiment [2], 7.9 nM.

Usually IC50 stands for the concentration that inhibits the measured activity by half. Read a high IC50 as weaker potency in that assay.

For the origin of these results see patent publication US20250186437A1, “CARBOLINE COMPOUNDS AND USE THEREOF” (PTC Therapeutics, Inc., priority 2021, published 2025).
